Results from article PMC10870114 (Clinical Cancer Research, 2023).

Assay: Plasma pharmacokinetics on fraction day
Type: in vivo, human
Settings: plasma, patients given peposertib

## Oc1ccc(C(O)c2cc(-c3ncnc4cc(N5CCOCC5)ccc34)c(F)cc2Cl)nn1 (centres unmarked) [M467]
  Average exposure proportion compared with peposertib, AUC: < 25%
  Average exposure proportion compared with peposertib, Cmax: < 16%
